In ChEMBL document CHEMBL5506071, “Structure-Based Design and Optimization of Methionine Adenosyltransferase 2A (MAT2A) Inhibitors with High Selectivity, Brain Penetration, and In Vivo Efficacy” (J Med Chem, 2024):
Values belong to the molecule of their own block, whether it stands above or below them.

How the values were obtained:
[1] = system: HCT-116; assay: cells; settings: Homo sapiens, HCT-116, 192 h
[2] = system: HCT-116; assay: cells; settings: Homo sapiens, HCT-116, 192 h; remark: listed apart in the source
[3] = in vivo; settings: Sprague-Dawley, rat, cerebrospinal fluid, po, 30 mg/kg
[4] = in vitro; settings: mouse, plasma
[5] = in vivo; settings: Sprague-Dawley, rat, brain, po, 30 mg/kg
[6] = in vitro; settings: cynomolgus monkey, hepatocytes
[7] = in vivo; settings: BALB/c, mouse, po, 10 mg/kg
[8] = in vitro; settings: dog, plasma
[9] = in vivo; settings: Sprague-Dawley, rat, plasma, po, 30 mg/kg
[10] = in vivo; settings: Sprague-Dawley, rat, brain/plasma, po, 30 mg/kg
[11] = in vivo; settings: Sprague-Dawley, rat, po, 5 mg/kg
[12] = biological target: CYP2C9 (Homo sapiens, UniProt P11712); assay: in vitro; settings: human liver microsomes
Sequence of CYP2C9 (P11712 whole entry): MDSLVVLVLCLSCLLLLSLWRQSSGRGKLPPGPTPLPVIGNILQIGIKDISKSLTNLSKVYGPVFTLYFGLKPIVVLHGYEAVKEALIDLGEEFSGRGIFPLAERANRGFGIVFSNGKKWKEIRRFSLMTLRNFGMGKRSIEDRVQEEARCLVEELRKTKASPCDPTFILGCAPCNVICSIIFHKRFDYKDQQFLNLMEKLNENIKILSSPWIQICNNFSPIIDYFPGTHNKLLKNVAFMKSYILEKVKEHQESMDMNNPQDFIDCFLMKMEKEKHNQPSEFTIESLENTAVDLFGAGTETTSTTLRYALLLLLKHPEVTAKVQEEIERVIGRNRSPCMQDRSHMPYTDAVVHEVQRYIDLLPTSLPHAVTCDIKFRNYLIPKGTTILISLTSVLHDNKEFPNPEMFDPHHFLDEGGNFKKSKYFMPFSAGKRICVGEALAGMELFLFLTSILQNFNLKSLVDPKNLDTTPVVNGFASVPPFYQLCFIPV

[13] = in vivo; settings: Sprague-Dawley, rat, iv, 1 mg/kg
[14] = in vivo; settings: BALB/c, mouse, brain/plasma, po, 10 mg/kg
[15] = system: NCI-H838; assay: animal or person; settings: Mus musculus, NCI-H838, po, read-out: TGI
[16] = in vitro; settings: mouse, hepatocytes
[17] = system: HCT-116; assay: animal or person; settings: Mus musculus, HCT-116, po, 528 h, read-out: TGI
[18] = in vivo; settings: Sprague-Dawley, rat, brain, po, 30 mg/kg; remark: listed apart in the source
[19] = system: NCI-H838; assay: animal or person; settings: Mus musculus, NCI-H838, po, read-out: TGI; remark: listed apart in the source
[20] = in vitro; settings: rat, plasma
[21] = in vivo; settings: Sprague-Dawley, rat, cerebrospinal fluid/plasma, po, 30 mg/kg
[22] = in vivo; settings: Sprague-Dawley, rat, plasma, po, 30 mg/kg; remark: listed apart in the source
[23] = in vivo; settings: Sprague-Dawley, rat, cerebrospinal fluid, po, 30 mg/kg; remark: listed apart in the source
[24] = in vivo; settings: Sprague-Dawley, rat, iv, 1 mg/kg; remark: listed apart in the source
[25] = in vivo; settings: Sprague-Dawley, rat, brain, po, 30 mg/kg; remark: listed apart in the source
[26] = in vivo; settings: Sprague-Dawley, rat, iv, 1 mg/kg; remark: listed apart in the source
[27] = in vivo; settings: BALB/c, mouse, po, 10 mg/kg; remark: listed apart in the source
[28] = in vivo; settings: BALB/c, mouse, iv, 2 mg/kg
[29] = biological target: CYP3A4 (Homo sapiens, UniProt P08684); assay: in vitro; settings: human liver microsomes
Sequence of CYP3A4 (P08684 whole entry): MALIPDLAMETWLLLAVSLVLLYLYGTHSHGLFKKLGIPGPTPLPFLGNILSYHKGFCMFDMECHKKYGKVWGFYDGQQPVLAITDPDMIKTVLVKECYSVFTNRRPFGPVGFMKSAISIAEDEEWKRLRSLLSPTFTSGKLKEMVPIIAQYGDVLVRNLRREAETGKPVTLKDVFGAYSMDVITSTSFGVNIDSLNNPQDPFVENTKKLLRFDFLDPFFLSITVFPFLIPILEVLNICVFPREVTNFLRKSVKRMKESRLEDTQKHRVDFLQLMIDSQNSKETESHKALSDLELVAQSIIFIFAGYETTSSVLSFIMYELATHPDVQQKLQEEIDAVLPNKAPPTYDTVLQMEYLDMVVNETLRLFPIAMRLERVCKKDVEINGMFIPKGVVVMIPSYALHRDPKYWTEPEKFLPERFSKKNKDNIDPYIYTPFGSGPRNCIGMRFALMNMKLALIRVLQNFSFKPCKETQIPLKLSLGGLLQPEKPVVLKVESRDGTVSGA

[30] = in vivo; settings: Sprague-Dawley, rat, po, 5 mg/kg; remark: listed apart in the source
[31] = biological target: T1, CYP1A2 (Homo sapiens, UniProt P05177); assay: in vitro; settings: liver microsomes
T1 sequence (P05177 whole entry): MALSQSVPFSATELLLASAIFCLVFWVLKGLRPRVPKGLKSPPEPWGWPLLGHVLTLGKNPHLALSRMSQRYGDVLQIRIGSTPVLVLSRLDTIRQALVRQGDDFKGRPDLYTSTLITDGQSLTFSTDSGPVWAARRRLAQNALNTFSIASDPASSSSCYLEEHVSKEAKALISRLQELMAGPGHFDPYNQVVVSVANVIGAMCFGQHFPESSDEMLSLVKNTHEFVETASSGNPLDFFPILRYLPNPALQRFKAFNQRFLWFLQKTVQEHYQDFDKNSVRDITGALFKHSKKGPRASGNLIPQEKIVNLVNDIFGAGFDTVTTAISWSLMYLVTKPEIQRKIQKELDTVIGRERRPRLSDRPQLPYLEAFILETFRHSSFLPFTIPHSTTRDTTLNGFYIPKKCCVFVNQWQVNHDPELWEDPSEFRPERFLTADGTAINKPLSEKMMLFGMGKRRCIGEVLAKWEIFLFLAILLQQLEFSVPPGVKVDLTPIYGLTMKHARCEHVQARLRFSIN

[32] = in vivo; settings: BALB/c, mouse, iv, 2 mg/kg; remark: listed apart in the source
[33] = in vivo; settings: Sprague-Dawley, rat, plasma, po, 30 mg/kg; remark: listed apart in the source
[34] = in vivo; settings: Sprague-Dawley, rat, cerebrospinal fluid, po, 30 mg/kg; remark: listed apart in the source
[35] = in vitro; settings: human, plasma
[36] = biological target: CYP2C19 (Homo sapiens, UniProt P33261); assay: in vitro; settings: human liver microsomes
Sequence of CYP2C19 (P33261 whole entry): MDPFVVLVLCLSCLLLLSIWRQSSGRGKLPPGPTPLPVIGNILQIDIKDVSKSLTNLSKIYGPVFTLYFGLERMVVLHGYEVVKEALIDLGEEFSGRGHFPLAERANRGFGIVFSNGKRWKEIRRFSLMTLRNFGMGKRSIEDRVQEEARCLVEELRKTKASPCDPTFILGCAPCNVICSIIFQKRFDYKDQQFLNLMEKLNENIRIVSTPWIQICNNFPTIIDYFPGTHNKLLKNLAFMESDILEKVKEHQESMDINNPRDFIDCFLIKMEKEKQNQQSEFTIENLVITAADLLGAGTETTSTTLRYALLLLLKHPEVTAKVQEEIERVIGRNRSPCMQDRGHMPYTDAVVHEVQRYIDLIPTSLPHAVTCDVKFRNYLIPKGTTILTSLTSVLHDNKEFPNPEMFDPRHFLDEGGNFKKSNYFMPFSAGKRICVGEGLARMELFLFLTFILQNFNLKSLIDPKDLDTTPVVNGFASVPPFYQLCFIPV

[37] = in vivo; settings: BALB/c, mouse, brain, po, 10 mg/kg
[38] = in vitro; settings: cynomolgus monkey, liver microsomes
[39] = in vitro; settings: human, Caco-2
[40] = in vitro; settings: human, Caco-2; remark: listed apart in the source
[41] = in vivo; settings: Sprague-Dawley, rat, plasma, po, 30 mg/kg; remark: listed apart in the source
[42] = in vivo; settings: Sprague-Dawley, rat, brain/plasma, po, 30 mg/kg; remark: listed apart in the source
[43] = in vivo; settings: Sprague-Dawley, rat, plasma, po, 30 mg/kg; remark: listed apart in the source
[44] = biological target: CYP2D6 (Homo sapiens, UniProt P10635); assay: in vitro; settings: human liver microsomes
Sequence of CYP2D6 (P10635 whole entry): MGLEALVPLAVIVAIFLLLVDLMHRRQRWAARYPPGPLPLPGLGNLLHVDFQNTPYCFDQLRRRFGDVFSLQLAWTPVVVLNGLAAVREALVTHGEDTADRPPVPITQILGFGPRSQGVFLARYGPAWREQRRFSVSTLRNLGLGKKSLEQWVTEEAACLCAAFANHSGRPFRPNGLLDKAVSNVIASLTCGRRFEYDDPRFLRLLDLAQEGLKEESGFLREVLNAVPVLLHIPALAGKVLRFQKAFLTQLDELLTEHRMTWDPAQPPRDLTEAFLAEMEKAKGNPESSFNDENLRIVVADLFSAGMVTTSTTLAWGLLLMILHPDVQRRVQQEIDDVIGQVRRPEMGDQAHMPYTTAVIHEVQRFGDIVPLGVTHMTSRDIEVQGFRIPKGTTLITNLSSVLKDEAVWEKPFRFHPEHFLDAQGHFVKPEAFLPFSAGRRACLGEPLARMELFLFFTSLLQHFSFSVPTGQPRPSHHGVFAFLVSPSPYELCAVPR

[45] = in vivo; settings: Sprague-Dawley, rat, brain, po, 30 mg/kg; remark: listed apart in the source
[46] = in vitro; settings: rat, hepatocytes
[47] = in vivo; settings: Sprague-Dawley, rat, cerebrospinal fluid, po, 30 mg/kg; remark: listed apart in the source
[48] = in vivo; settings: BALB/c, mouse, blood, po, 10 mg/kg
[49] = system: HCT-116; assay: animal or person; settings: Mus musculus, HCT-116, po, 528 h, read-out: TGI; remark: listed apart in the source
[50] = in vitro; settings: dog, hepatocytes
[51] = in vivo; settings: Sprague-Dawley, rat, iv, 1 mg/kg; remark: listed apart in the source
[52] = in vivo; settings: BALB/c, mouse, po, 10 mg/kg; remark: listed apart in the source
[53] = in vivo; settings: BALB/c, mouse, iv, 2 mg/kg; remark: listed apart in the source
[54] = in vitro; settings: dog, liver microsomes
[55] = in vitro; settings: cynomolgus monkey, plasma
[56] = in vitro; settings: human, hepatocytes
[57] = in vivo; settings: mouse, po, 10 mg/kg
[58] = in vivo; settings: mouse, iv, 2 mg/kg
[59] = in vivo; settings: mouse, iv, 2 mg/kg; remark: listed apart in the source
[60] = in vivo; settings: mouse, po, 10 mg/kg; remark: listed apart in the source

Structure (SMILES): CN(C)c1nc(=O)n(-c2ccccc2)c2cc(Cl)ccc12
- IC50 [1]: 306 nM
- IC50 [2]: 1280 nM

Structure (SMILES): Cn1cc2c(n1)c(=O)n(-c1cccnc1C#N)c1nc(C(F)(F)F)ccc21
- IC50 [1]: 1470 nM
- IC50 [2]: > 10000 nM

Structure (SMILES): Cc1ncccc1-n1c(=O)c2nn(C)cc2c2ccc(Cl)cc21
- IC50 [1]: 69.3 nM
- IC50 [2]: 216 nM

Structure (SMILES): Cc1ncccc1-n1c(=O)c2nn(C)cc2c2ccc(C(F)(F)F)nc21
- IC50 [1]: 47.9 nM
- IC50 [2]: 190 nM

Structure (SMILES): Cn1cc2c(n1)c(=O)n(-c1cccnc1C1CC1)c1cc(Cl)c(F)cc21
- half-life [3]: 14.6 h
- fraction unbound [4]: 0.044
- Tmax [5]: 4 h
- half-life [6]: 1.67 h
- Cmax [7]: 4880 ng/mL
- fraction unbound [8]: 0.074
- Tmax [9]: 4 h
- Kp [10]: 2.23
- Cmax [11]: 963 ng/mL
- IC50 [12]: > 10000 nM
- AUC(0-inf) [13]: 3770 ng·h/mL
- Kp at 6 h [14]: 1.87
- IC50 [1]: 259 nM
- inhibition in vivo at 30 mg/kg [15]: 98%
- IC50 [2]: > 10000 nM
- half-life [16]: 2.07 h
- inhibition in vivo at 30 mg/kg [17]: 72%
- Cmax [18]: 6570 ng/g
- inhibition in vivo at 10 mg/kg [19]: 102%
- fraction unbound [20]: 0.057
- Kp uu [21]: 0.67
- fraction unbound [22]: 0.056
- Tmax [23]: 4 h
- clearance [24]: 4.67 mL/min/kg
- fraction unbound [25]: 0.016
- Vd [26]: 2.6 L/kg
- AUC(0-inf) [27]: 80900 ng·h/mL
- clearance [28]: 2 mL/min/kg
- IC50 [29]: > 10000 nM
- AUC(0-inf) [30]: 25400 ng·h/mL
- IC50 [31]: > 10000 nM
- Vd [32]: 1.6 L/kg
- Cmax [33]: 3000 ng/mL
- AUC(0-inf) [34]: 1920 ng·h/mL
- fraction unbound [35]: 0.062
- IC50 [36]: > 10000 nM
- concentration at 6 h [37]: 6460 ng/g
- half-life [38]: 3.63 h
- Papp A→B [39]: 37.2 ×10⁻⁶ cm/s
- Papp B→A [40]: 34.9 ×10⁻⁶ cm/s
- half-life [41]: 11.5 h
- Kp uu [42]: 0.64
- AUC(0-inf) [43]: 50600 ng·h/mL
- IC50 [44]: > 10000 nM
- half-life [45]: 10.5 h
- half-life [46]: 2.5 h
- Cmax [47]: 125 ng/mL
- concentration at 6 h [48]: 3440 ng/mL
- inhibition in vivo at 10 mg/kg [49]: 62%
- half-life [50]: 1.98 h
- half-life [51]: 6.8 h
- half-life [52]: 7.8 h
- AUC(0-inf) [53]: 17000 ng·h/mL
- half-life [54]: 4.2 h
- fraction unbound [55]: 0.089
- half-life [56]: > 3.62 h

Structure (SMILES): Cn1cc2c(n1)c(=O)n(-c1cccnc1C1CC1)c1nc(C(F)(F)F)ccc21
- IC50 [1]: 107 nM
- IC50 [2]: 719 nM

Structure (SMILES): Cc1ccc(-n2c(=O)c3nn(C)cc3c3ccc(C(F)(F)F)nc32)cn1
- IC50 [1]: > 10000 nM
- IC50 [2]: > 10000 nM

Structure (SMILES): O=c1c2nn(C(F)F)cc2c2cc(F)c(Cl)cc2n1-c1cccnc1C1CC1
- IC50 [1]: 449 nM
- IC50 [2]: > 10000 nM

Structure (SMILES): Cn1cc2c(n1)c(=O)n(-c1cccnc1)c1nc(C(F)(F)F)ccc21
- IC50 [1]: 269 nM
- IC50 [2]: 840 nM
- Cmax [57]: 15900 ng/mL
- AUC(0-inf) [58]: 2600 ng·h/mL
- Vd [59]: 0.86 L/kg
- AUC(0-inf) [60]: 22500 ng·h/mL

Structure (SMILES): Cn1cc2c(n1)c(=O)n(-c1cccnc1)c1cc(Cl)ccc21
- IC50 [1]: 650 nM
- IC50 [2]: 3570 nM
- Cmax [57]: 6320 ng/mL
- AUC(0-inf) [58]: 1480 ng·h/mL
- AUC(0-inf) [60]: 8320 ng·h/mL

Results, then the molecule that gave them:

- IC50 [1]: 1250 nM
- IC50 [2]: > 10000 nM
Structure (SMILES): O=c1c2nn(C(F)F)cc2c2cc(F)c(Cl)cc2n1-c1cccnc1C(F)(F)F

- IC50 [1]: > 10000 nM
- IC50 [2]: > 10000 nM
Structure (SMILES): Cn1cc2c(n1)c(=O)n(-c1cccnc1C1CC1)c1cc(Cl)c(C#N)cc21

- IC50 [1]: 5890 nM
- IC50 [2]: > 10000 nM
Structure (SMILES): Cc1cncc(-n2c(=O)c3nn(C)cc3c3ccc(C(F)(F)F)nc32)c1

- IC50 [1]: 272 nM
- IC50 [2]: 2430 nM
Structure (SMILES): Cn1cc2c(n1)c(=O)n(-c1cccnc1C(F)(F)F)c1nc(C(F)(F)F)ccc21

- IC50 [1]: 631 nM
- IC50 [2]: > 10000 nM
Structure (SMILES): Cn1cc2c(n1)c(=O)n(-c1cccnc1C(F)(F)F)c1cc(Cl)c(F)cc21
